Patent US20110233526A1, “PERYLENE DIIMIDE DERIVATIVE AND ORGANIC SEMICONDUCTOR ELEMENT USING THE SAME MATERIAL” (priority 2010, published 2011)

Experiments:
[1] = Electron mobility of TC-PDA-F in an OTFT versus time of exposure to air (air-stability, FIG. 3); format: physicochemical; conditions: OTFT thin film
Description: Refer to FIG. 1 and FIG. 2 for diagrams respectively schematically showing a BG-TC (Bottom Gate-Top Contact) OTFT and a BG-BC (Bottom Gate-Bottom Contact) OTFT. The BG-TC OTFT 10 has a substrate 11, a gate 12 formed on the substrate 11, a dielectric layer 13 formed on the gate 12, a source 14 and a drain 15 formed over the dielectric layer 13, and an organic semiconductor layer 16 for conducting the source 14 and the drain 15. The BG-BC OTFT 20 has a substrate 21, a gate 22 formed on the substrate 21, a dielectric layer 23 formed on the gate 22, a source 24 and a drain 25 formed on the dielectric layer 23, and an organic semiconductor layer 26 for conducting the source 24 and the drain 25. In one embodiment, the organic semiconductor layers 16 and 26 are fabricated with a soluble process in the atmospheric environment. In one embodiment, the dielectric layers 13 and 23 respectively formed on the substrates 11 and 21 also are fabricated with a soluble process. For example, a liquid-phase deposited silicon dioxide (LPD-SiO2) is formed on a silicon substrate 11 or 21 to function as the dielectric layer 13 or 23, whereby the electron mobility thereof can reach 0.26 cm^2V^−1s^−1. Refer to FIG. 3 for a diagram showing the relationship of the electron mobility of TC-PDA-F and the time of exposure to air.

[2] = Solubility in organic solution; format: physicochemical; conditions: organic solution (such as toluene)

O=C1c2cc(Cl)c3c4c(Cl)cc5c6c(cc(Cl)c(c7c(Cl)cc(c2c37)C(=O)N1Cc1cc(F)cc(C(F)(F)F)c1)c64)C(=O)N(Cc1cc(F)cc(C(F)(F)F)c1)C5=O [TC-PDA-F]
electron mobility ([1]; after exposure to air for two months (FIG. 3)): 1.6×10^−5 cm^2V^−1s^−1
electron mobility ([1]; before exposure to air (FIG. 3)): 5.34×10^−5 cm^2V^−1s^−1
solubility in organic solution [2]: can be dissolved
